# Measurements: patent publication US20130096119A1, “Isoquinolin-3-Ylurea Derivatives” (priority 2010, published 2013)
# Test system: S. pneumoniae ATCC 49619
# Assay: Minimal inhibitory concentration (MIC) by microdilution method (CLSI M7-A7)
# Format: cell-based, Streptococcus pneumoniae
# Conditions: Streptococcus pneumoniae, ATCC49619, cation-adjusted Mueller-Hinton Broth supplemented with 3% (v/v) lysed horse blood
# Protocol: Minimal inhibitory concentrations (MICs; mg/l) were determined in cation-adjusted Mueller-Hinton Broth (supplemented with 3% (v/v) lysed horse blood for testing Streptococcus pneumoniae) by a microdilution method following the description given in “Methods for Dilution Antimicrobial Susceptibility Tests for Bacteria that Grow Aerobically”, Approved standard, 7th ed., Clinical and Laboratory Standards Institute (CLSI) Document M7-A7, Wayne, Pa., USA, 2006.
row,MIC,SMILES
1,2 µg/mL,"CCNC(=O)Nc1cc2c(-c3cscn3)ccc(C)c2cn1.Cl [Example 285, 1-ethyl-3-(8-methyl-5-thiazol-4-yl-isoquinolin-3-yl)-urea hydrochloride]"
2,1 µg/mL,"CCNC(=O)Nc1cc2c(-c3ccc(CO)cc3)ccc(Nc3cccnc3)c2cn1 [Example 226, 1-ethyl-3-[5-(4-hydroxymethyl-phenyl)-8-(pyridin-3-ylamino)-isoquinolin-3-yl]-urea]"
3,4 µg/mL,"CCNC(=O)Nc1cc2cc(-c3ccoc3)cc(C)c2cn1 [Example 14, 1-ethyl-3-(6-furan-3-yl-8-methyl-isoquinolin-3-yl)-urea]"
4,8 µg/mL,"CCNC(=O)Nc1cc2cccc(Nc3ccncc3)c2cn1 [Example 153, 1-ethyl-3-[8-(pyridin-4-ylamino)-isoquinolin-3-yl]-urea]"
5,2 µg/mL,"CCNC(=O)Nc1cc2cc(-c3cncc(SC)c3)cc(C)c2cn1 [Example 96, 1-ethyl-3-[8-methyl-6-(5-methylsulfanyl-pyridin-3-yl)-isoquinolin-3-yl]-urea]"
6,8 µg/mL,"CCNC(=O)Nc1cc2cc(NCc3ccc4c(c3)OCCN4C)cc(C)c2cn1.Cl [Example 130, 1-ethyl-3-{8-methyl-6-[(4-methyl-3,4-dihydro-2H-benzo[1,4]oxazin-7-ylmethyl)-amino]isoquinolin-3-yl}-urea hydrochloride]"
7,0.25 µg/mL,"CCNC(=O)Nc1cc2cc(NC(=O)c3ccc(N(C)C)cc3)cc(C)c2cn1 [Example 121, 4-dimethylamino-N-[3-(3-ethyl-ureido)-8-methyl-isoquinolin-6-yl]-benzamide]"
8,4 µg/mL,"CCNC(=O)Nc1cc2cccc(Cn3cc(C)cn3)c2cn1 [Example 300, 1-ethyl-3-[8-(4-methyl-pyrazol-1-ylmethyl)-isoquinolin-3-yl]-urea]"
9,4 µg/mL,"CCNC(=O)Nc1cc2cc(NCc3ccc4cn[nH]c4c3)cc(C)c2cn1 [Example 184, 1-ethyl-3-{6-[(1H-indazol-6-ylmethyl)-amino]-8-methyl-isoquinolin-3-yl}-urea]"
10,8 µg/mL,"CCNC(=O)Nc1cc2cc(NCc3ccc(OC)nc3)cc(C)c2cn1.Cl [Example 196, 1-ethyl-3-{6-[(6-methoxy-pyridin-3-ylmethyl)-amino]-8-methyl-isoquinolin-3-yl}-urea hydrochloride]"
11,0.06 µg/mL,"CCNC(=O)Nc1cc2cc(NC(=O)c3cccc(N(C)C)c3)cc(C)c2cn1 [Example 118, 3-dimethylamino-N-[3-(3-ethyl-ureido)-8-methyl-isoquinolin-6-yl]-benzamide]"
12,2 µg/mL,"CCNC(=O)Nc1cc2cccc(Nc3cccc(S(N)(=O)=O)c3)c2cn1 [Example 171, 3-[3-(3-ethyl-ureido)-isoquinolin-8-ylamino]-benzenesulfonamide]"
13,0.25 µg/mL,"CCNC(=O)Nc1cc2c(F)c(-c3cccc(NC(C)=O)c3)cc(Nc3cccnc3)c2cn1 [Example 234, N-{3-[3-(3-ethyl-ureido)-5-fluoro-8-(pyridin-3-ylamino)-isoquinolin-6-yl]phenyl}-acetamide]"
14,4 µg/mL,"CCNC(=O)Nc1cc2c(CNC)ccc(Nc3cccnc3)c2cn1 [Example 270, 1-ethyl-3-{5-[(methylamino)methyl]-8-(pyridin-3-ylamino)-isoquinolin-3-yl}-urea]"
15,8 µg/mL,"CCNC(=O)Nc1cc2cc(-c3cccc4cnccc34)cc(C)c2cn1 [Example 104, 1-ethyl-3-(8′-methyl-[5,6′]biisoquinolinyl-3′-yl)-urea]"
16,8 µg/mL,"CCNC(=O)Nc1cc2cccc(Nc3cccc(C(=O)OC)n3)c2cn1.Cl [Example 166, 6-[3-(3-ethyl-ureido)-isoquinolin-8-ylamino]-pyridine-2-carboxylic acid methyl ester hydrochloride]"
17,4 µg/mL,"CCNC(=O)Nc1cc2c(-c3cccc(O)c3)ccc(C)c2cn1 [Example 68, 1-ethyl-3-[5-(3-hydroxy-phenyl)-8-methyl-isoquinolin-3-yl]-urea]"
18,0.25 µg/mL,"CCNC(=O)Nc1cc2cc(NC(=O)c3cccnc3)cc(C)c2cn1 [Example 119, N-[3-(3-ethyl-ureido)-8-methyl-isoquinolin-6-yl]nicotinamide]"
19,2 µg/mL,"CCNC(=O)Nc1cc2cccc(Nc3cccc(OC)n3)c2cn1 [Example 178, 1-ethyl-3-[8-(6-methoxy-pyridin-2-ylamino)-isoquinolin-3-yl]-urea]"
20,1 µg/mL,"CCNC(=O)Nc1cc2cc(-c3cccc(NC(C)=O)c3)cc(C)c2cn1 [Example 37, N-{3-[3-(3-ethyl-ureido)-8-methyl-isoquinolin-6-yl]-phenyl}-acetamide]"
21,0.25 µg/mL,"CCNC(=O)Nc1cc2cc(-c3cncc(C)c3)cc(Nc3cccnc3)c2cn1 [Example 237, 1-ethyl-3-[6-(5-methyl-pyridin-3-yl)-8-(pyridin-3-ylamino)-isoquinolin-3-yl]-urea]"
22,0.25 µg/mL,"CCNC(=O)Nc1cc2cc(-c3ccc(S(C)(=O)=O)cc3)cc(C)c2cn1 [Example 94, 1-ethyl-3-[6-(4-methanesulfonyl-phenyl)-8-methyl-isoquinolin-3-yl]-urea]"
23,0.5 µg/mL,"CCNC(=O)Nc1cc2c(-c3ccnc(C)c3)ccc(Nc3ccc(C)nc3)c2cn1 [Example 245, 1-ethyl-3-[5-(2-methyl-pyridin-4-yl)-8-(6-methyl-pyridin-3-ylamino)-isoquinolin-3-yl]urea]"
24,1 µg/mL,"CCNC(=O)Nc1cc2cccc(Nc3ccc(C(=O)O)cc3)c2cn1 [Example 202, 4-[3-(3-ethyl-ureido)-isoquinolin-8-ylamino]-benzoic acid]"
25,4 µg/mL,"CCNC(=O)Nc1cc2cccc(Nc3ncccn3)c2cn1 [Example 152, 1-ethyl-3-[8-(pyrimidin-2-ylamino)-isoquinolin-3-yl]-urea]"
26,1 µg/mL,"CCNC(=O)Nc1cc2cc(-c3ccc4ccccc4c3)cc(C)c2cn1 [Example 79, 1-ethyl-3-(8-methyl-6-naphthalen-2-yl-isoquinolin-3-yl)-urea]"

# More lines, now with the values behind:
row,SMILES,MIC
1,"CCNC(=O)Nc1cc2c(F)c(-c3cccnc3)cc(-c3cccnc3)c2cn1 [Example 53, 1-ethyl-3-(5-fluoro-6,8-di-pyridin-3-yl-isoquinolin-3-yl)-urea]",8 µg/mL
2,"CCNC(=O)Nc1cc2cccc(CNc3cc(C)ns3)c2cn1 [Example 192, 1-ethyl-3-{8-[(3-methyl-isothiazol-5-ylamino)-methyl]-isoquinolin-3-yl}-urea]",2 µg/mL
3,"CCNC(=O)Nc1cc2c(-c3cn[nH]c3)ccc(C)c2cn1.Cl [Example 281, 1-ethyl-3-[8-methyl-5-(1H-pyrazol-4-yl)-isoquinolin-3-yl]urea hydrochloride]",0.5 µg/mL
4,"CCNC(=O)Nc1cc2cccc(Nc3ccc(OC)cn3)c2cn1 [Example 181, 1-ethyl-3-[8-(5-methoxy-pyridin-2-ylamino)-isoquinolin-3-yl]-urea]",8 µg/mL
5,"CCNC(=O)Nc1cc2cc(NC(=O)c3ccc(C(=O)OC)cc3)cc(C)c2cn1 [Example 193, N-[3-(3-ethyl-ureido)-8-methyl-isoquinolin-6-yl]terephthalamic acid methyl ester]",1 µg/mL
6,"CCNC(=O)Nc1cc2cccc(Nc3ccncc3F)c2cn1.Cl [Example 157, 1-ethyl-3-[8-(3-fluoro-pyridin-4-ylamino)-isoquinolin-3-yl]-urea hydrochloride]",2 µg/mL
7,"CCNC(=O)Nc1cc2c(F)c(-c3cccc(NC(C)=O)c3)cc(C)c2cn1 [Example 142, N-{3-[3-(3-ethyl-ureido)-5-fluoro-8-methyl-isoquinolin-6-yl]-phenyl}-acetamide]",0.25 µg/mL
8,"CCNC(=O)Nc1cc2c(-c3c[nH]cn3)ccc(C)c2cn1.Cl [Example 280, 1-ethyl-3-[5-(1H-imidazol-4-yl)-8-methyl-isoquinolin-3-yl]urea hydrochloride]",1 µg/mL
9,"Cc1ccc(-c2ccncc2)c2cc(NC(=O)NCCF)ncc12 [Example 138, 1-(2-fluoro-ethyl)-3-(8-methyl-5-pyridin-4-yl-isoquinolin-3-yl)-urea]",1 µg/mL
10,"CCNC(=O)Nc1cc2cc(NCc3ccc(OCC(N)=O)cc3)cc(C)c2cn1 [Example 186, 2-(4-{[3-(3-ethyl-ureido)-8-methyl-isoquinolin-6-ylamino]-methyl}-phenoxy)-acetamide]",8 µg/mL
11,"CCNC(=O)Nc1cc2cc(N)cc(C)c2cn1 [Example 54, 1-(6-amino-8-methyl-isoquinolin-3-yl)-3-ethyl-urea]",16 µg/mL
12,"CCNC(=O)Nc1cc2cc(-c3cncc(C)c3)cc(C)c2cn1 [Example 39, 1-ethyl-3-[8-methyl-6-(5-methyl-pyridin-3-yl)-isoquinolin-3-yl]-urea]",1 µg/mL
13,"CCNC(=O)Nc1cc2cc(NCC(C)C)cc(C)c2cn1.Cl [Example 136, 1-ethyl-3-(6-isobutylamino-8-methyl-isoquinolin-3-yl)-urea hydrochloride]",16 µg/mL
14,"CCNC(=O)Nc1cc2c(-c3ccc(O)cc3)ccc(Nc3cccnc3)c2cn1 [Example 228, 1-ethyl-3-[5-(4-hydroxy-phenyl)-8-(pyridin-3-ylamino)-isoquinolin-3-yl]-urea]",2 µg/mL
15,"CCNC(=O)Nc1cc2cccc(Nc3ccc(C#N)cc3)c2cn1 [Example 174, 1-[8-(4-cyano-phenylamino)-isoquinolin-3-yl]-3-ethyl-urea]",2 µg/mL
16,"CCNC(=O)Nc1cc2cc(NCc3ccccc3)cc(C)c2cn1 [Example 58, 1-(6-benzylamino-8-methyl-isoquinolin-3-yl)-3-ethyl-urea]",8 µg/mL
17,"CCNC(=O)Nc1cc2cc(NCC3CC3)cc(C)c2cn1.Cl [Example 133, 1-{6-[(cyclopropylmethyl)-amino]-8-methyl-isoquinolin-3-yl}-3-ethyl-urea hydrochloride]",16 µg/mL
18,"CCNC(=O)Nc1cc2cc(NC(=O)c3ccccc3)ccc2cn1 [Example 52, N-[3-(3-ethyl-ureido)-isoquinolin-6-yl]-benzamide]",2 µg/mL
19,"CCNC(=O)Nc1cc2c(-c3cscn3)ccc(Nc3cccc(OC)n3)c2cn1 [Example 290, 1-ethyl-3-[8-(6-methoxy-pyridin-2-ylamino)-5-thiazol-4-yl-isoquinolin-3-yl]-urea]",0.5 µg/mL
